# Test system: dopaminergic neuronal cell line
# Experiment: High glutamate-induced oxidative stress assay (HGOS)
# Assay type: cell-based
# Conditions: Mus musculus; 30 mM glutamate, 16 hrs, Cell Tracker Green; read-out: EC50 for protection against HGOS cell injury and cell death
# From the text: Protection against redox stress can be further evaluated in cell culture using high glutamate induced oxidative stress (HGOS) in mouse dopaminergic cell lines. The cytotoxic effect of glutamate is not due to excitotoxicity, as this cell line is devoid of inotropic glutamate receptors. Rather, the glutamate-induced toxicity of dopaminergic cells is associated with an inhibition of cystine transport which subsequently leads to depletion of intracellular glutathione (GSH) levels (Murphy T. H., et al. Neuron 2, 1547-1558, 1989), activation of neuronal 12-lipoxygenase (Li, Y. et al., Neuron 19,453-463, 1997), increased ROS production (Tan S. et al., J. Cell Biol. 141, 1423-1432, 1998) and elevated intracellular Ca^2+ (Li, Y. et al., see supra). Some molecules were measured for their ability to protect such cells against glutamate-induced stress and the assay is detailed in Examples.
# This procedure was used to induce high glutamate-induced oxidative stress (HGOS) in a dopaminergic neuronal cell line. Using this assay the potency and efficacy of test articles against HGOS neuronal cell injury and cell death was established in a high throughput manner.
# The cells were seeded into 96-well plates at a density of 2000 per well and left to grow for 72 hours in a 33° C. incubator with 5% CO2 in air atmosphere. The passage number of the cells for each assay experiment were no later than p11 in order to minimize experimental variation.
# All compounds were dissolved in DMEM-No Glu containing 1 mM glucose, 30 mM glutamate and 1× Pen/Strep. DMEM-No Glu with 1 mM glucose and 1×P/S was used as the negative control, DMEM-No Glucose with 1 mM glucose, […] was used as a positive control and 100 μM Glutathione was added to the positive control as a standard. All of the procedures for this involving the making and dilution of compounds were performed using aseptic conditions and with minimal light.
# The plates were removed from the incubator and examined under the microscope for morphological appearance and density. Using an aseptic technique and an 8-channel aspirator the media was carefully removed from the cells and replaced with 200 μl of 1×HBSS. This was done as quickly as possible to prevent the cells drying out. The plates were then placed in the humidified 37° C. incubators of the Biomek 2000 Side Loader. Four plates were washed at a time so as to minimize the time that the cells were sitting in 1×HBSS prior to addition of the compound test solution.
# The Beckman Biomek workstations were used to load the compounds and controls from the mother plates onto the cell plates that were prewashed with HBSS under sterile conditions. The plates were incubated in the upper HTS incubator at 37° C. in 5% CO2 for exactly 16 hrs. The following day, using the Beckman Biomek workstations, the plates were removed from the incubator. Using Cell Tracker Addition, the compounds were removed from the plates, washed once with […] of pre-warmed 1×HBSS and then 100 μL of 5 μM Cell Tracker Green was added to each well. The plates were incubated at 37° C. for 30 min to allow the dye to enter the cell and be cleaved by the esterases. After washing the cells twice with prewarmed 1×HBSS, the plates were read with the 485 excitation; 538 emission filter pair on a Fluoroskan.
row,SMILES,EC50 [µM]
1,"Cc1c(C)c2c(c(C)c1O)C=CC(C)(C)O2 [2,2,5,7,8-Pentamethyl-2H-chromen-6-ol]",≤ 5
2,"Cc1c(O)c(C)c([N+](=O)[O-])c2c1CCC(C)(C)O2 [2,2,5,7-Tetramethyl-8-nitro-chroman-6-ol]",≤ 5
3,"Cc1cc(O)c(C)c2c1OC(C)(C)CC2 [2,2,5,8-Tetramethyl-chroman-6-ol]",≤ 5
4,"Cc1c(O)cc2c(c1C)OC(C)(C)CC2 [2,2,7,8-Tetramethyl-chroman-6-ol]",≤ 5
5,"Cc1c(O)cc2c(c1C)OC(C)(CCCCl)CC2 (centres unmarked) [2-(3-Chloro-propyl)-2,7,8-trimethyl-chroman-6-ol]",≤ 5
6,"Cc1c(C)c2c(c(CC(CO)CO)c1O)CCC(C)(C)O2 [2-(6-Hydroxy-2,2,7,8-tetramethyl-chroman-5-ylmethyl)-propane-1,3-diol]",≤ 5
7,"Cc1c(C)c2c(c(C)c1O)CCC(C)(COCC(=O)Nc1cccc(C(F)(F)F)c1)O2 (centres unmarked) [2-(6-Hydroxy-2,5,7,8-tetramethyl-chroman-2-ylmethoxy)-N-(3-trifluoromethyl-phenyl)-acetamide]",≤ 5
8,"C#CC1(C)CCc2c(C)c(O)c(C)c(C)c2O1 (centres unmarked) [2-Ethynyl-2,5,7,8-tetramethyl-chroman-6-ol]",≤ 5
9,"Cc1c(C)c2c(c(C)c1O)CCC(C)(CO)O2 (centres unmarked) [2-Hydroxymethyl-2,5,7,8-tetramethyl-chroman-6-ol]",≤ 5
10,"Cc1c(C)c2c(c(Br)c1O)CCC(C)(CCC(=O)O)O2 (centres unmarked) [3-(5-Bromo-6-hydroxy-2,7,8-trimethyl-chroman-2-yl)-propionic acid]",≤ 5
11,"Cc1c(O)cc2c(c1C)OC1(C)CCCC2C1 (centres unmarked) [5,6,9-Trimethyl-8-oxa-tricyclo[7.3.1.0^2,7]trideca-2,4,6-trien-4-ol]",≤ 5
12,"Cc1c(C)c2c(c(C(C)O)c1O)CCC(C)(C)O2 (centres unmarked) [5-(1-Hydroxy-ethyl)-2,2,7,8-tetramethyl-chroman-6-ol]",≤ 5
13,"Cc1c(C)c2c(c(CCO)c1O)CCC(C)(C)O2 [5-(2-Hydroxy-ethyl)-2,2,7,8-tetramethyl-chroman-6-ol]",≤ 5
14,"Cc1c(C)c2c(c(CN3CCN(Cc4ccccc4)CC3)c1O)CCC(C)(CCCC(C)CCCC(C)CCCC(C)C)O2 (centres unmarked) [5-(4-Benzyl-piperazin-1-ylmethyl)-2,7,8-trimethyl-2-(4,8,12-trimethyl-tridecyl)-chroman-6-ol]",≤ 5
15,"Cc1c(C)c2c(c(CO)c1O)CCC(C)(C)O2 [5-Hydroxymethyl-2,2,7,8-tetramethyl-chroman-6-ol]",≤ 5
16,"Cc1c(O)c(C)c2c(c1C=O)OC(C)(C)CC2 [6-Hydroxy-2,2,5,7-tetramethyl-chroman-8-carbaldehyde]",≤ 5
17,"Cc1c(C)c2c(c(C)c1O)CCC(C)(C(=N)N)O2 (centres unmarked) [6-Hydroxy-2,5,7,8-tetramethyl-chroman-2-carboxamidine]",≤ 5
18,"COc1cccc2c(O)cc3c(c12)OC(C)(C)CC3 [10-Methoxy-2,2-dimethyl-3,4-dihydro-2H-benzo[h]chromen-6-ol]",≤ 5
19,"Cc1c(C)c2c(c(C)c1O)CCC(C)(C(=O)N1CCNCC1)O2 (centres unmarked) [(6-Hydroxy-2,5,7,8-tetramethyl-chroman-2-yl)-piperazin-1-yl-methanone]",≤ 5
20,"CC(=O)N(C)CC1(C)CCc2c(C)c(O)c(C)c(C)c2O1 (centres unmarked) [N-(6-Hydroxy-2,5,7,8-tetramethyl-chroman-2-ylmethyl)-N-methyl-acetamide]",≤ 5
